Results reported in patent publication US20250135012A1, “DENDRIMER CONJUGATES OF SMALL MOLECULE BIOLOGICS FOR INTRACELLULAR DELIVERY” (The Johns Hopkins University, priority 2021, published 2025).
Non-standard residues stand in square brackets, D forms with d. Residues, ends and D or L forms follow the SMILES beside them. Cya = N[C@@H](CS(=O)(=O)O)C(=O)O

Tests used:
[1] = tested on: TNFα; assay: TNFα expression in LPS stimulated RAW264.7 cells (qPCR); type: cell-based, murine; conditions: only at the highest dose
Method: (§1) RAW264.7 cells were seeded at a density of 1×10^5 cells per well in 12-well plates 48 h before treatment. Cells were incubated with D-ALG1001 and ALG-1001 for 24 h, the treatment media was aspirated then LPS at a concentration of 10,000 Endotoxin Units/mL was added to stimulate inflammatory response. Samples were collected 3 h after LPS stimulation for qPCR analysis.
(§2) 100 μL of chloroform was added to the Trizol suspension and the aqueous phase was separated with a centrifuge at 10K RPM at 4° C. for 15 minutes. 400 μL of 2-propanol was added to the aqueous solution and spun again to pellet the RNA. The RNA was washed with 70% ethanol solution, pelleted again, and re-suspended in DEPC (ultrapure treated to inactivated enzymes) water.
(§3) To convert RNA to complementary DNA, 2 μg of RNA was converted using a High-Capacity cDNA Reverse Transcription Kit (Applied Biosystems, Foster City, CA). Samples were analyzed using STEPONE PLUS® real-time PCR system (Applied Biosystems) with SYBR Green reagent (ThermoFisher Scientific). Relative expression was quantified with ΔΔCt calculations normalized to controls. Primers for GAPDH was obtained from Bio-Rad Laboratories (Hercules, CA). Primers were purchased from Integrated DNA Technologies (Coralville, IA). Primers for TNFα were: […]

[2] = tested on: FAK; assay: Choroid total FAK and phospho-FAK (Y397) ELISA; type: in vivo, Brown Norway rats
Method: In brief, 500 μL of T-Per supplemented with PHOSSTOP® and proteinase inhibitor cocktail was added to tubes containing dissected choroid. A scoop of 1.6 mm steel homogenization beads was added to each sample and then placed in […]® LT (Qiagen) at an oscillation frequency of 50/s for 15 minutes. For qPCR, 200 μL of TRIZOL® was added to tubes containing choroid and a scoop of 1.6 mm steel homogenization beads was added. The samples were placed in […]® LT at an oscillation frequency of 50/s for 15 minutes.
For protein extracted from tissues, total FAK and FAK (Phospho) [pY397] ELISA kits (Invitrogen) were used to quantify the level of protein expression and the measured protein expression was normalized to the total protein amount of each sample as determined from BCA assays.
To evaluate activation of FAK and ERK pathways, eyes were enucleated at set time points and the choroidal tissue dissected out. Tissues were submerged in a mixture of T-per, proteinase inhibitor, and PhosStop with stainless steel homogenization beads and homogenized to produce protein extracts. Total FAK, total ERK, p-FAK (Y397), and p-44/42 ERK ELISA kits were used to quantify the amount of total and phosphorylated proteins in FAK and ERK pathways. […] However, the level of total FAK protein in ALG-1001 treated animals was elevated at day 14.

[3] = tested on: FAK; assay: Western blot, FAK and phospho-FAK in VEGF stimulated HUVEC; type: cell-based, human
Method: Cells were treated with D-ALG1001 and ALG-1001 for 24 h before activation with VEGF for 5 minutes. […] Cells were lysed with TRIZOL® and processed as previously described for qPCR analysis.
Concentration of protein was determined with the BCA protein assay kit (Thermo Scientific, Rockford, IL). Equal amount of protein was denatured and resolved on 4-15% TGX gels (Bio-Rad, Hercules, CA). Gels were transferred to nitrocellulose membranes, blocked with 3% Bovine Serum Albumin (“BSA”) at RT for 1 h, and probed for GAPDH, FAK, pFAK, MAPK, and pMAPK at 4° C. overnight. Membranes were washed thrice before incubation with HRP-conjugated secondary antibodies followed by incubation with chemiluminescent substrate for visualization.
To elucidate the mechanism through which D-ALG and ALG-1001 influence angiogenic function, cells were pre-treated with D-ALG and ALG-1001 for 24 h. The cells were then stimulated with a high dose of exogenous VEGF for 5 min after which the samples were collected for western blotting. The samples were probed for expression of total FAK, phospho-FAK (Y397), ERK1/2, phospho-ERK1/2, and Cyclophilin B (CycB) with CycB acting as the internal control.

[4] = tested on: IL1β; assay: IL1β expression in LPS stimulated RAW264.7 cells (qPCR); type: cell-based, murine; conditions: 24 h pretreatment, LPS 3 h
Method: as §1, §2, §3

[5] = tested on: CNV area; assay: Biodistribution after systemic administration, laser CNV model; type: in vivo, Brown Norway rats; conditions: systemic (intraperitoneal) administration, 150 μg
Method: For biodistribution studies, a dose of Cy5-D-ALG1001-Cy3 and ALG-1001-Cy3 at 150 μg/100 μL was administered to each animal intraperitoneally on the day of CNV induction (Day 0). Animals were sacrificed at 1-, 2-, 3-, and 4-day time points and enucleated.
After fixation, the posterior segment of the eye was dissected out and the retina separated from the choroid. Tissues stained with FITC-labeled isolectin (GS IB4) (Life Technologies, Eugene, OR) for blood vessels and monocytes. Eyes were mounted by introducing four radial relaxation cuts. Samples for biodistribution were imaged under a confocal 710 microscope (Carl Zeiss, Oberkochen, Germany). Samples for CNV quantification were imaged with an Axiovert phase contrast microscope. All images were processed with ImageJ.
Fluorescently labeled Cy3-ALG-1001 peptide and dual labeled Cy5-dendrimer-ALG-Cy3 were systemically injected on day 0 (same day as CNV induction) and choroidal tissues were collected at set time points. Confocal microscopy was used to monitor the presence of ALG-1001 peptide (Cy3), dendrimer carrier (Cy5), CNV formation (Isolectin), and macrophages (Iba1). […] In comparison, D-ALG was able to not only reach the CNV area within 24 h after systemic injection but also remain in the target area up to 4 days post administration from the co-localized presence of both Cy5 and Cy3 signals.

[6] = tested on: HUVEC cells; assay: HUVEC vessel formation assay on Matrigel; type: cell-based, human; conditions: 1 mM
Method: 96 well plates were coated with 75 μL of […]® and left at room temperature for 15 minutes before placing into 37° C. incubators for an additional 30 minutes. D-ALG1001 was dissolved at twice the desired concentration and 50 μL of the drug solution was added to the wells. HUVEC cells were then added to each well at a density of 70,000 cells/cm^2. Live-cell images were taken at 12 h for analysis.
To find the effective dose in a physiologically relevant model, an in vitro model of blood vessel formation was utilized. HUVEC cells were treated with a gradient concentration of D-ALG and ALG-1001 for 24 h at three different magnitudes of doses. The cells were then seeded on […]® after which cells naturally migrate to form blood vessel-like tubule structures. The images were analyzed with Angiogenesis Analyzer plug-in on ImageJ to extract relevant metrics that measure the connectivity and integrity of tube networks (FIG. 16).

C[C@@H](O)[C@H](NC(=O)[C@H](CS(=O)(=O)O)NC(=O)CNC(=O)[C@H](CCCNC(=N)N)NC(=O)CN)C(=O)N1CCC[C@H]1C(=O)O [ALG-1001] (H-GRG[Cya]TP-OH; N-terminus and C-terminus assumed)
reduction of TNFα expression [1]: 20%
p-FAK protein ([2]; 7 and 14 days): reduction of p-FAK
total FAK protein ([2]; day 14): elevated
reduction of phospho-FAK ([3]; 1 mM on a peptide basis, vs VEGF stimulated controls): 20%
total FAK and phospho-FAK expression ([3]; vs untreated VEGF stimulated controls): lower levels of total FAK and phosphor-FAK
impact on IL1β production [4]: no impact on IL1β production
time remaining in the CNV target area [5]: up to 2 days
tube formation [6]: increased disruption in tube formation
